In publication PMC8000889, “Phenolic Compounds from Leaves and Flowers of Hibiscus roseus: Potential Skin Cosmetic Applications of an Under-Investigated Species” (Plants, 2021):
In brackets after ≈: the same amount, converted by molar mass.

Target: T1, collagenase (Collagenase Activity Assay Kit, Sigma-Aldrich)
T1 construct: gene colG
Test: FALGPA hydrolysis, absorbance at […] nm
Type: biochemical
Details: substrate FALGPA; 96-well plate, 200 μL, followed for 20 min

In the case of `O=c1c(O)c(-c2ccc(O)c(O)c2)oc2cc(O)cc(O)c12` [quercetin], the IC50 was 5.6 ± 0.7 µg/mL (≈ 18.5 µM).
